Test system: appetite of cats
Experiment: Food consumption (appetite) of stressed healthy cats after dose administration
Format: in vivo, cat
Details: subcutaneous injection 3.75 mg vs oral 3.75 mg
From the text: The purpose of these tests is to evaluate the effect of administration of mirtazapine by subcutaneous injection on the appetite of cats as compared to dose administration by the oral route (positive control) and a control (injection of saline solution, negative control). The healthy cats selected were previously acclimated for at least seven days prior to testing; during this period, they were examined by a veterinarian. They were then divided into three groups of two cats each according to a cross-over experimental design, with each cat receiving each of the 3 treatments according to a predetermined sequence: • 0.5 ml of saline (0.9% sodium chloride) was administered by subcutaneous injection in the interscapular area to the T0 group which represents the negative control; • the group T1 received a subcutaneous injection, in the interscapular area, of 0.5 ml of the tested formulation of mirtazapine (represents a dose administration of 3.75 mg of mirtazapine); • the group T3 instead received 0.25 ml (represents a dose administration of 3.75 mg of mirtazapine) of the liquid formulation by means of forced administration (syringe) in the mouth and represents the positive control group. […] The food consumption is represented in FIGS. 2A (food consumption measured at each point) and 2B (cumulative food consumption).

With `CN1CCN2c3ncccc3Cc3ccccc3C2C1` (centres unmarked) [mirtazapine, 1,2,3,4,10,14b-hexahydro-2-methylpyrazino(2,1-a)pyrido(2,3-c)benzazepine] the “duration of appetite induction compared with oral administration” value was “inducing appetite for a longer time period” and the “increase in appetite (food consumption) compared with same dose by oral route” value was “as effective as the administration of the same dose by oral route”.

Source: US10071102B2, “Injectable mirtazapine for treating appetite loss and nutritional disorders in cats” (VIRBAC, priority 2013, dated 2018)
